The source of these data is ChEMBL document CHEMBL1153914, “Synthesis, binding affinity and SAR of new benzolactam derivatives as dopamine D3 receptor ligands” (Bioorg Med Chem Lett, 2009).

Molecules are shown by their SMILES.

The target in assay [1] is T1, D(1A) dopamine receptor (Homo sapiens, UniProt P21728). As to the kind of experiment: Displacement of [3H]SCH23390 from human dopamine D1 receptor. A general note: In a radioligand displacement assay an active substance lowers the binding of a labelled ligand.
T1 sequence (P21728 whole entry): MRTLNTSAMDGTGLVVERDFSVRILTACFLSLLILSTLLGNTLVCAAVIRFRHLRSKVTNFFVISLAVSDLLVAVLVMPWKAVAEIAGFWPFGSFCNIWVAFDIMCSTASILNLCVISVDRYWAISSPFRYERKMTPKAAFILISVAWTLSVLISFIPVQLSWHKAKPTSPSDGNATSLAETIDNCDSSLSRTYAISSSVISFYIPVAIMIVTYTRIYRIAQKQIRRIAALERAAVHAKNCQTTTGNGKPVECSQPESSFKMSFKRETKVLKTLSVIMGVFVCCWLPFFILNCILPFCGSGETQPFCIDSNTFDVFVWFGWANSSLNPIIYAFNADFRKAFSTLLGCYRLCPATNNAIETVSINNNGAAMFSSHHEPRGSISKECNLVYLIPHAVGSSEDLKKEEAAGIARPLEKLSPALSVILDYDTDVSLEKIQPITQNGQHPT
Assay [2] concerns the target T2, D(2) dopamine receptor (Homo sapiens, UniProt P14416). Kind of assay: Displacement of [3H]spiperone from human dopamine D2 receptor.
Assay [3] addresses D(3) dopamine receptor (Homo sapiens, UniProt P35462). As to the kind of experiment: Displacement of [3H]spiperone from human dopamine D3 receptor.
The species entered for assay [4] is Homo sapiens. As to the kind of experiment: Selectivity ratio of Ki for human dopamine D2 receptor to Ki for human dopamine D3 receptor.
For assay [5], the target named is 5-hydroxytryptamine receptor 2A (Homo sapiens, UniProt P28223). Kind of assay: Displacement of [3H]ketanserin from 5HT2A receptor.
Sequence of 5-hydroxytryptamine receptor 2A (P28223 whole entry): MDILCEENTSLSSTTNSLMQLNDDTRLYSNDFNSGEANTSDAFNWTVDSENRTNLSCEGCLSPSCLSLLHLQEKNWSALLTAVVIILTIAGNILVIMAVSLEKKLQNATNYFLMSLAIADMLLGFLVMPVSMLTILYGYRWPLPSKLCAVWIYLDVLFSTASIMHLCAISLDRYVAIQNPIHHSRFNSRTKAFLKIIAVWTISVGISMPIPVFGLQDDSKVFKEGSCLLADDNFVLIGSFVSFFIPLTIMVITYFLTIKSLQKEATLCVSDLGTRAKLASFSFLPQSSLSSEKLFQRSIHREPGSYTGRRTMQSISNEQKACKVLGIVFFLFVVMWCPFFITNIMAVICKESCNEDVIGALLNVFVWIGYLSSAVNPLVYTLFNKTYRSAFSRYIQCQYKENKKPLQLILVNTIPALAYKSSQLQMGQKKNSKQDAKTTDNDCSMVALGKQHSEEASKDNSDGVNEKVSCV
Assay [6] deals with T1, D(1A) dopamine receptor. As to the kind of experiment: Displacement of [3H]SCH23390 from human dopamine D1 receptor at 10 uM.
The target in assay [7] is T2, D(2) dopamine receptor. As to the kind of experiment: Displacement of [3H]spiperone from human dopamine D2 receptor at 10 uM.
Assay [8] in a line: Selectivity for dopamine D3 receptor over dopamine D2 receptor.

T2 sequence (P14416 whole entry): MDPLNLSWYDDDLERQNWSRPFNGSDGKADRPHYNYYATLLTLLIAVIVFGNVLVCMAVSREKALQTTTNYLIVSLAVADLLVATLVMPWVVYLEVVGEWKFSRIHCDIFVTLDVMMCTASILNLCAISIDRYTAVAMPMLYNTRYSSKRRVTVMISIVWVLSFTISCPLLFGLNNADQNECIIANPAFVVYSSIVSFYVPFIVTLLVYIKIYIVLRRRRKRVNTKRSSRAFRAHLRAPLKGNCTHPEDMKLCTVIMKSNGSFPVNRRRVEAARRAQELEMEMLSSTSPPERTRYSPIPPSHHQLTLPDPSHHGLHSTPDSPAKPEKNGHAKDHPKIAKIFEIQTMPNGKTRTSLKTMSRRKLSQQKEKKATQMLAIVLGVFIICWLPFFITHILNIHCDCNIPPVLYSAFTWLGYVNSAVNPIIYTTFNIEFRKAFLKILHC
Sequence of D(3) dopamine receptor (P35462 whole entry): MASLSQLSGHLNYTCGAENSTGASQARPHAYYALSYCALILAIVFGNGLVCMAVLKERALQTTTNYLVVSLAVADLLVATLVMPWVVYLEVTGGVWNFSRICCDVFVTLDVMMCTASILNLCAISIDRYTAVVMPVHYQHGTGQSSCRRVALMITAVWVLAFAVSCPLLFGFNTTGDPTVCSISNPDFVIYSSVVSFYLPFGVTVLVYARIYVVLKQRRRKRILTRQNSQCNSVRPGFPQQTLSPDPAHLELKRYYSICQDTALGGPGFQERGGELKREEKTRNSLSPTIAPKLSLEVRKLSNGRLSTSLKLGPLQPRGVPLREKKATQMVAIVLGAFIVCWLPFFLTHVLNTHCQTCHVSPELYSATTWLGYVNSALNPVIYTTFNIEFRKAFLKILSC

Regarding `O=C1c2ccccc2CCN1CCCCN1CCN(c2ccccc2Cl)CC1`, the Ki was 347 nM in assay [1], 35.5 nM in assay [2] and 6.76 nM in assay [3] (read-out: pKi (converted)). In assay [4], the Ratio Ki is 5.2.
With `COc1ccccc1N1CCN(CCCN2CCCc3ccccc3C2=O)CC1`, the Ki in assay [1] is 2510 nM; in assay [2], 794 nM; in assay [3] (read-out: pKi (converted)), 209 nM.
Consider `O=C1c2ccccc2CCCN1CCCCN1CCN(c2cccc(Cl)c2Cl)CC1`, for which the Ki in assay [1] is 1740 nM; in assay [2], 36.3 nM; in assay [3] (read-out: pKi (converted)) it was 14.5 nM; in assay [5], 10 nM. In assay [4], the Ratio Ki is 2.5.
`COc1ccccc1N1CCN(CCCN2CCc3ccccc3C2=O)CC1`: the Activity in assay [6] was 59.5%; in assay [7], 50.4%. The Ki in assay [3] (read-out: pKi (converted)) was 1580 nM.
`O=C1c2ccccc2CCN1CCCN1CCN(c2ncccn2)CC1`: the results for the Activity in assay [6] and in assay [7] were 40.8% and 0.36%, respectively. Moreover, the Ki in assay [3] (read-out: pKi (converted)) is 24500 nM.
`COc1ccccc1N1CCN(CCCCN2CCc3ccccc3C2=O)CC1` had an Activity in assay [6] of 61.1%. For the same molecule, the Ki in assay [2] was 12.3 nM.
Regarding `O=C1c2ccccc2CCCN1CCCCN1CCN(c2ncccn2)CC1`, the Ki was 8710 nM in assay [1], 151 nM in assay [2] and 631 nM in assay [3] (read-out: pKi (converted)).
Consider `O=C1c2ccccc2CCCN1CCCN1CCN(c2cccc(C(F)(F)F)c2)CC1`, for which the Ki was 4900 nM in assay [1] and 1050 nM in assay [3] (read-out: pKi (converted)). Moreover, the Activity in assay [7] was 55.5%.
With `COc1ccc(N2CCN(CCCN3CCc4ccccc4C3=O)CC2)cc1`, the Activity was 43.5% in assay [6] and 1.35% in assay [7]. Also, the Ki in assay [3] (read-out: pKi (converted)) is 10000 nM.
As to `O=C1c2ccccc2CCCN1CCCN1CCN(c2ncccn2)CC1`, the Activity in assay [6] is 46%; in assay [7], 36.4%. Further, the Ki in assay [3] (read-out: pKi (converted)) was 8320 nM.
In the case of `O=C1c2ccccc2CCCN1CCCN1CCN(c2cccc(Cl)c2Cl)CC1`, the Ki in assay [1] was 2400 nM; in assay [2], 219 nM; in assay [3] (read-out: pKi (converted)) it was 389 nM.
On the same counts, the results for `COc1cccc(N2CCN(CCCCN3CCc4ccccc4C3=O)CC2)c1` are 427 nM, 158 nM and 40.7 nM.
As for `O=C1c2ccccc2CCN1CCCCN1CCN(c2ncccn2)CC1`, the Activity in assay [6] came to 31.6%; in assay [7] it was 60.5%. The Ki in assay [3] (read-out: pKi (converted)) was 1510 nM.
On to `O=C1c2ccccc2CCN1CCCN1CCN(c2ccccn2)CC1`, for which the Ki was 1700 nM in assay [1] and 8320 nM in assay [3] (read-out: pKi (converted)). This molecule also returned an Activity in assay [7] of 12.4%.
In the case of `COc1ccccc1N1CCN(CCCCN2CCCc3ccccc3C2=O)CC1`, the Ki in assay [1] is 2690 nM; in assay [2] it was 3.63 nM; in assay [3] (read-out: pKi (converted)), 1.58 nM. Further, the Ratio Ki in assay [4] came out at 2.2.
Regarding `O=C1c2ccccc2CCN1CCCN1CCN(c2cccc(C(F)(F)F)c2)CC1`, the Ki in assay [1] is 1740 nM; in assay [3] (read-out: pKi (converted)), 2400 nM. The molecule further registered an Activity in assay [7] of 52.4%.
Consider `COc1ccc(N2CCN(CCCCN3CCCc4ccccc4C3=O)CC2)cc1`, for which the Activity was found to be 47.5% in assay [6] and 59% in assay [7]. Moreover, the Ki in assay [3] (read-out: Ki) came out at 40 nM.
As for `O=C(NCCCCN1CCN(c2cccc(Cl)c2Cl)CC1)c1cc2ccccc2s1`, in assay [8], the Selectivity ratio came out at 7200.
Consider `COc1ccc(N2CCN(CCCCN3CCc4ccccc4C3=O)CC2)cc1`, for which the Activity was found to be 34.2% in assay [6] and 33.2% in assay [7]. Besides, the Ki in assay [3] (read-out: pKi (converted)) was 490 nM.
The molecule `O=C1c2ccccc2CCN1CCCCN1CCN(c2ccccn2)CC1` had a Ki in assay [1] of 2040 nM. In assay [7], this molecule registered an Activity of 57.5%.
Take `COc1ccc(N2CCN(CCCN3CCCCc4ccccc4C3=O)CC2)cc1`: the Activity worked out at 58.9% in assay [6] and 13.1% in assay [7]. In addition, in assay [3] (read-out: pKi (converted)), the Ki was 8910 nM.
For the molecule `O=C1c2ccccc2CCN1CCCN1CCN(c2cccc(Cl)c2Cl)CC1`, the results for the Ki in assay [1] and in assay [3] (read-out: pKi (converted)) were 1450 nM and 209 nM, respectively. This molecule yielded an Activity in assay [7] of 59.9%.
In the case of `O=C1c2ccccc2CCCN1CCCN1CCN(c2ccccn2)CC1`, the Activity in assay [6] is 57%; in assay [7], 26.3%. Moreover, the Ki in assay [3] (read-out: pKi (converted)) is 4170 nM.
As for `O=C1c2ccccc2CCCN1CCCCN1CCN(c2ccccn2)CC1`, the Ki in assay [1] is 282 nM; in assay [2], 229 nM; in assay [3] (read-out: pKi (converted)) it was 398 nM.
The corresponding values for `O=C1c2ccccc2CCN1CCCCN1CCN(c2cccc(Cl)c2Cl)CC1` are 1780 nM, 11.5 nM and 162 nM.
For `COc1ccc(N2CCN(CCCN3CCCc4ccccc4C3=O)CC2)cc1`, the Activity in assay [6] is 42.8%; in assay [7], 1.1%. For the same molecule, the Ki was > 100000 nM in assay [2] and 1100 nM in assay [3] (read-out: pKi (converted)).
Consider `COc1ccccc1N1CCN(CCCCCN2CCc3ccccc3C2=O)CC1`, for which the values for the Ki in assay [1], in assay [2] and in assay [3] (read-out: pKi (converted)) were 977 nM, 20.4 nM and 32.4 nM, respectively.
